The target in experiment [1] is T1, eIF2B (decamer; ISRIB pocket formed by the β- and δ-subunits) (Homo sapiens, UniProt P49770+Q9UI10). Briefly: FP competition with FAM-ISRIB; BLI (ISRIB-induced dissociation of eIF2B from P-eIF2α-NTD). Type of experiment: binding. On the set-up: gene EIF2B2; purified recombinant human eIF2B decamer; with eIF2Bβ (EIF2B2), with eIF2Bα, γ, ε in the decamer; P-eIF2α-NTD immobilised in the BLI assay.

Experiment [2] concerns the target T1, eIF2B (decamer; ISRIB pocket formed by the β- and δ-subunits). Briefly: fluorescence polarization, kinetic displacement by unlabelled ISRIB (koff). Type of experiment: binding. On the set-up: gene EIF2B2; purified recombinant human eIF2B decamer; with eIF2Bβ (EIF2B2), with eIF2Bα, γ, ε in the decamer. In general terms: Fluorescence polarisation rises when a labelled molecule tumbles more slowly, as on binding a larger partner.

As a reminder, the EC50 is the concentration at which the effect is half-maximal. Turning to `O=C(COc1ccc(Cl)cc1)N[C@H]1CC[C@H](NC(=O)COc2ccc(Cl)cc2)CC1` [ISRIB], the concentration giving a half-maximal response (EC50) in experiment [1] worked out at 1.8 nM.

FAM-ISRIB: the “fluorescence polarization, kinetic displacement by unlabelled ISRIB (koff)” value in experiment [2] came out at 0.0123 s⁻¹.

Values taken from publication PMC7837216, “ISRIB Blunts the Integrated Stress Response by Allosterically Antagonising the Inhibitory Effect of Phosphorylated eIF2 on eIF2B” (Molecular Cell, 2021).
